Experimental findings from PMC7531004, “Discovery of gramicidin A analogues with altered activities by multidimensional screening of a one-bead-one-compound library” (Nature Communications, 2020) are described below.

For series [1], the system named is P388 mouse leukemia cells. The conditions noted are these: 92 h. An excerpt:
Each type of assay must be simplified and miniaturized to assess the activities of the library peptides in a 96-well format for the high-throughput screening. […]
Mammalian cytotoxicity assay of bead-derived peptides . P388 cells were obtained from Institute of
Development Aging and Cancer (Tohoku University). The cells were maintained with growth medium
[RPMI1640 with phenol red ( Fujifilm Wako Pure Chemical) supplemented with 10% heat -inactivated fetal
bovine serum, pe nicillin G (100 units/mL), and streptomycin (100 µg/mL)] under atmosphere of 5% CO 2 at
The collected cells were resuspended into
the growth medium at 2 × 10^4 cells/mL. The stock solutions of the peptide library were 250-fold diluted
with the growth medium. Aliquots of the medium (100 µL) containing peptides and the latter medium
containing P388 cells (100 µL) were mixed in a 96-well cell culture plate (TR5003, TrueLine). The final
concentration of P388 cells was 1 × 10^4 cells/mL. After incubation under atmosphere of 5% CO2 at 37 °C
for 92 h, the numbers of viable cells were determined by
2-(4-iodophenyl)-3-(4-nitrophenyl)-5-(2,4-disulfophenyl)-2H-tetrazolium, monosodium salt (WST-1) assay.
A solution of 1-methoxy-5-methylphenazinium methyl sulfate (1-methoxy PMS) and WST-1 in the growth
medium (1-methoxy PMS 0.70 mg/mL in Milli-Q/WST-1 3.6 mg/mL in pH 7.4 HEPES buffer = 1/9) was
added to each well of the plate (10.0 µL/well). The plate was incubated for 4 h under atmosphere of 5% CO2
at 37 °C. The absorbance of each well at 415 nm was measured using a Benchmark microplate reader
(Bio-Rad). The cytotoxicities were evaluated as cell viability (%). […]

Series [2] is described as follows: H+/Na+ transport assay of bead-derived peptides (one-point).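 Also: relative to parent gramicidin A activity set to 1.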 Type of series: biochemical. On the set-up: key: relative activity; mean of two control wells = 1.00. As to conditions: bead-derived peptide solution, EYPC/EYPG LUVs. As to the method: (§1) Each type of assay must be simplified and miniaturized to assess the activities of the library peptides in a 96-well format for the high-throughput screening.
H+/Na+ transport assay of bead-derived peptides.1,2,3 Trisodium 8-hydroxypyrene-1,3,6-trisulfonate
mini-extruder apparatus (Avanti Polar Lipids).
28.9 µmol) in CHCl3 (225 µL) and egg yolk phosphatidylglycerol (1.20 mg, 1.56 µmol) in CHCl3 (60.0 µL)
The thin film was hydrated and
1.0 mM pyranine) by sonication.
A suspension of the LUVs was immediately
used for the H+/Na+ transport assay.
The diluted solution of peptide
flat-bottom 96-well plate (655086, Greiner bio-one).
was vortexed at room temperature for 30 min.
(5/95, 3.0 µL) and the LUV suspension were mixed in each plate to determine 100% lysis. The untreated
LUV suspension was used to determine 0% lysis.
normalized against 100% lysis by Triton X-100 (Imax) and 0% lysis (I0) as following, where Ix is the
fluorescence intensity (Supplementary Equation 2).
I = 100 × (Ix – I0) / (Imax – I0) (2)
The mean value of the two control wells was set to 1.00. […]

Series [3] concerns Streptococcus pyogenes SSI-9. The experiment in a line: Antibacterial activity assay of bead-derived peptides (three concentrations). The class given is cell-based. On the set-up: key: +++: inhibition by the 640-fold diluted peptide solution; ++: inhibition by the 160-fold diluted solution; +: inhibition by the 40-fold diluted solution; -: no inhibition. As to conditions: S. pyogenes, bead-derived peptide solution, three concentrations. As to the method: as §1
Next, the peptides in groups A and B were subjected to the antibacterial assay and structural determination. Three peptide concentrations were applied to evaluate the growth inhibition of S. pyogenes and determine the antibacterial activity. […] Finally, the structures of the peptides were determined. […]
Antibacterial activity assay of bead-derived peptides. The stock solution of the peptide library was 4- and […]
16-fold diluted with DMSO. The non-diluted stock solution, 4-fold diluted solution, and 16-fold diluted […]
solution were transferred to the 96-well round-bottom plate (3367, Corning, 1.0 µL/well). To the solution of […]
peptide in each well was added a suspension of Streptococcus pyogenes SSI-9 strain in cation adjusted […]
Mueller Hinton Broth [40.0 µL, 2 × 10^5 colony forming units (CFU), 21 g/L Mueller Hinton Broth (Difco), 50 […]
mg/L Ca2+ (adjusted with CaCl2•2H2O), and 25 mg/L Mg2+ (adjusted with MgCl2•6H2O)] supplemented with […]
5% laked horse blood (Nippon Biotest Laboratories). The plate was incubated at 37 °C for 18 h, and the precipitation of the grown cells was examined. […]

Structures are written as SMILES. Where a SMILES comes first, the peptide text is derived from it. [ ]: non-standard residue; d: D form. The star is where a group is joined. NHCH2CH2OH = OCCN*; For = O=C*

In turn, `CC(C)C[C@@H](NC(=O)[C@H](C)NC(=O)[C@H](NC(=O)[C@H](C)NC(=O)CNC(=O)[C@@H](NC=O)C(C)C)[C@H](C)O)C(=O)N[C@H](C(=O)N[C@H](CC(C)C)C(=O)N[C@@H](Cc1c[nH]c2ccccc12)C(=O)N[C@H](CC(C)C)C(=O)N[C@@H](Cc1c[nH]c2ccccc12)C(=O)N[C@@H](C(=O)N[C@@H](Cc1c[nH]c2ccccc12)C(=O)N[C@@H](C(=O)N[C@@H](Cc1c[nH]c2ccccc12)C(=O)NCCO)C(C)C)C(C)C)C(C)C` [compound 569] (For-VGA[dT]A[dL]V[dL]W[dL]W[dV]W[dV]W-NHCH2CH2OH) displayed a cell viability/% in series [1] of 100.0%. Also, in series [2], the “H+/Na+ transport activity normalized against the value of 1 (1.00)” value (from here on “H+/Na+ transport activity normalized”) came to 1.01. Also, the antibacterial activity entry in series [3] was “-”.

`CNC(=O)C[C@@H](NC(=O)[C@@H](NC(=O)[C@@H](CC(C)C)NC(=O)[C@H](C)NC(=O)[C@@H](CC(C)C)NC(=O)[C@H](C)NC(=O)CNC(=O)[C@@H](NC=O)C(C)C)C(C)C)C(=O)N[C@@H](Cc1c[nH]c2ccccc12)C(=O)N[C@H](CC(C)C)C(=O)N[C@@H](Cc1c[nH]c2ccccc12)C(=O)N[C@H](CC(C)C)C(=O)N[C@@H](Cc1c[nH]c2ccccc12)C(=O)N[C@@H](C(=O)N[C@@H](Cc1c[nH]c2ccccc12)C(=O)NCCO)[C@H](C)O` [compound 638] (For-VGA[dL]A[dL]V[dD](NHMe)W[dL]W[dL]W[dT]W-NHCH2CH2OH) returned a cell viability/% in series [1] of 100.0%. Moreover, the “H+/Na+ transport activity normalized” value in series [2] is 1.01. Moreover, the antibacterial activity result in series [3] is “-”.

`CC(C)C[C@@H](NC(=O)[C@H](C)NC(=O)CNC(=O)[C@@H](NC=O)C(C)C)C(=O)N[C@@H](C)C(=O)N[C@H](CC(C)C)C(=O)N[C@H](C(=O)N[C@H](CC(C)C)C(=O)N[C@@H](Cc1c[nH]c2ccccc12)C(=O)N[C@H](CC(C)C)C(=O)N[C@@H](Cc1c[nH]c2ccccc12)C(=O)N[C@@H](C(=O)N[C@@H](Cc1c[nH]c2ccccc12)C(=O)N[C@H](CC(C)C)C(=O)N[C@@H](Cc1c[nH]c2ccccc12)C(=O)NCCO)C(C)C)C(C)C` [compound 646] (For-VGA[dL]A[dL]V[dL]W[dL]W[dV]W[dL]W-NHCH2CH2OH) gave a cell viability/% in series [1] of 0.2%. Further, in series [2], the “H+/Na+ transport activity normalized” value is 1.11. The antibacterial activity entry in series [3] is listed as “+”.

Regarding `CC(C)C[C@@H](NC(=O)[C@H](C)NC(=O)[C@H](NC(=O)[C@H](C)NC(=O)CNC(=O)[C@@H](NC=O)C(C)C)C(C)C)C(=O)N[C@H](C(=O)N[C@@H](C(=O)N[C@@H](Cc1c[nH]c2ccccc12)C(=O)N[C@H](CC(C)C)C(=O)N[C@@H](Cc1c[nH]c2ccccc12)C(=O)N[C@@H](C(=O)N[C@@H](Cc1c[nH]c2ccccc12)C(=O)N[C@H](CC(C)C)C(=O)N[C@@H](Cc1c[nH]c2ccccc12)C(=O)NCCO)C(C)C)C(C)C)C(C)C` [compound 660] (For-VGA[dV]A[dL]V[dV]W[dL]W[dV]W[dL]W-NHCH2CH2OH), the cell viability/% in series [1] is listed as 15.6%. Besides, the “H+/Na+ transport activity normalized” value in series [2] is on record as 1.06. In series [3], the antibacterial activity entry was “++”.

`CC(C)C[C@@H](NC(=O)[C@H](Cc1c[nH]c2ccccc12)NC(=O)[C@@H](CC(C)C)NC(=O)[C@H](Cc1c[nH]c2ccccc12)NC(=O)[C@@H](CC(C)C)NC(=O)[C@H](Cc1c[nH]c2ccccc12)NC(=O)[C@H](NC(=O)[C@@H](NC(=O)[C@H](NC(=O)[C@H](C)NC(=O)[C@H](NC(=O)[C@H](C)NC(=O)CNC(=O)[C@@H](NC=O)C(C)C)C(C)C)C(C)C)C(C)C)C(C)C)C(=O)N[C@@H](Cc1c[nH]c2ccccc12)C(=O)NCCO` [compound 662] (For-VGA[dV]A[dV]V[dV]W[dL]W[dL]W[dL]W-NHCH2CH2OH) gave a cell viability/% in series [1] of 1.5%. In addition, the “H+/Na+ transport activity normalized” value in series [2] worked out at 1.04. For the same compound, the antibacterial activity result in series [3] is reported as “+++”.

In series [1], `CC(C)C[C@@H](NC(=O)[C@H](Cc1c[nH]c2ccccc12)NC(=O)[C@H](NC(=O)[C@H](Cc1c[nH]c2ccccc12)NC(=O)[C@H](NC(=O)[C@@H](NC(=O)[C@H](NC(=O)[C@H](C)NC(=O)[C@H](NC(=O)[C@H](C)NC(=O)CNC(=O)[C@@H](NC=O)C(C)C)C(C)C)C(C)C)C(C)C)C(C)C)C(C)C)C(=O)N[C@@H](Cc1c[nH]c2ccccc12)C(=O)N[C@@H](C(=O)N[C@@H](Cc1c[nH]c2ccccc12)C(=O)NCCO)C(C)C` [compound 676] (For-VGA[dV]A[dV]V[dV]W[dV]W[dL]W[dV]W-NHCH2CH2OH) yielded a cell viability/% of 100.0%. Further, the “H+/Na+ transport activity normalized” value in series [2] was determined as 1.02. In addition, the antibacterial activity result in series [3] is reported as “++”.

As for `CC(C)C[C@@H](NC(=O)[C@H](C)NC(=O)CNC(=O)[C@@H](NC=O)C(C)C)C(=O)N[C@@H](C)C(=O)N[C@@H](C(=O)N[C@H](C(=O)N[C@@H](C(=O)N[C@@H](Cc1c[nH]c2ccccc12)C(=O)N[C@@H](C(=O)N[C@@H](Cc1c[nH]c2ccccc12)C(=O)N[C@@H](C(=O)N[C@@H](Cc1c[nH]c2ccccc12)C(=O)N[C@H](CC(C)C)C(=O)N[C@@H](Cc1c[nH]c2ccccc12)C(=O)NCCO)C(C)C)C(C)C)[C@H](C)O)C(C)C)C(C)C` [compound 809] (For-VGA[dL]A[dV]V[dT]W[dV]W[dV]W[dL]W-NHCH2CH2OH), the cell viability/% in series [1] was 100.0%. The “H+/Na+ transport activity normalized” value in series [2] is 1.13. Besides, the antibacterial activity entry in series [3] is “-”.

`CC(C)C[C@@H](NC(=O)[C@H](C)NC(=O)[C@H](NC(=O)[C@H](C)NC(=O)CNC(=O)[C@@H](NC=O)C(C)C)C(C)C)C(=O)N[C@H](C(=O)N[C@H](CC(C)C)C(=O)N[C@@H](Cc1c[nH]c2ccccc12)C(=O)N[C@@H](C(=O)N[C@@H](Cc1c[nH]c2ccccc12)C(=O)N[C@H](CC(C)C)C(=O)N[C@@H](Cc1c[nH]c2ccccc12)C(=O)N[C@@H](C(=O)N[C@@H](Cc1c[nH]c2ccccc12)C(=O)NCCO)C(C)C)C(C)C)C(C)C` [compound 906] (For-VGA[dV]A[dL]V[dL]W[dV]W[dL]W[dV]W-NHCH2CH2OH): the cell viability/% in series [1] amounted to 100.0%. Moreover, in series [2], the “H+/Na+ transport activity normalized” value stood at 1.06. In addition, the antibacterial activity entry in series [3] is “+”.

With `CC(C)C[C@@H](NC(=O)[C@H](Cc1c[nH]c2ccccc12)NC(=O)[C@H](NC(=O)[C@H](Cc1c[nH]c2ccccc12)NC(=O)[C@H](NC(=O)[C@H](Cc1c[nH]c2ccccc12)NC(=O)[C@H](NC(=O)[C@@H](NC(=O)[C@H](NC(=O)[C@H](C)NC(=O)[C@H](NC(=O)[C@H](C)NC(=O)CNC(=O)[C@@H](NC=O)C(C)C)C(C)C)C(C)C)C(C)C)C(C)C)C(C)C)C(C)C)C(=O)N[C@@H](Cc1c[nH]c2ccccc12)C(=O)NCCO` [compound 1004] (For-VGA[dV]A[dV]V[dV]W[dV]W[dV]W[dL]W-NHCH2CH2OH), the cell viability/% in series [1] is 60.4%. The “H+/Na+ transport activity normalized” value in series [2] is recorded as 1.04. The antibacterial activity entry in series [3] is recorded as “+”.

In series [1], `CC(C)C[C@@H](NC(=O)[C@H](Cc1c[nH]c2ccccc12)NC(=O)[C@H](NC(=O)[C@H](Cc1c[nH]c2ccccc12)NC(=O)[C@@H](CC(C)C)NC(=O)[C@H](Cc1c[nH]c2ccccc12)NC(=O)[C@@H](CC(C)C)NC(=O)[C@@H](NC(=O)[C@H](NC(=O)[C@H](C)NC(=O)[C@H](NC(=O)[C@H](C)NC(=O)CNC(=O)[C@@H](NC=O)C(C)C)C(C)C)C(C)C)C(C)C)[C@H](C)O)C(=O)N[C@@H](Cc1c[nH]c2ccccc12)C(=O)NCCO` [compound 1251] (For-VGA[dV]A[dV]V[dL]W[dL]W[dT]W[dL]W-NHCH2CH2OH) gave a cell viability/% of 52.9%. In series [2], the “H+/Na+ transport activity normalized” value was 1.00. Also, the antibacterial activity entry in series [3] was “+”.
